Legend:
[1] = target: κ opioid receptor (κ阿片类受体) (Homo sapiens, UniProt P41145); test: Radioligand competitive binding, κ opioid receptor (Example 12)
[2] = target: μ opioid receptor (μ阿片类受体) (Homo sapiens, UniProt P35372); test: Radioligand competitive binding, μ opioid receptor (Example 12)
[3] = target: δ opioid receptor (δ阿片类受体) (Homo sapiens, UniProt P41143); test: Radioligand competitive binding, δ opioid receptor (Example 12)
[4] = Grinding test, crystal form by XRPD (Example 7); assay type: physicochemical; settings: agate mortar, thorough grinding for half an hour
[5] = Intermediate and long-term storage stability (Example 10); assay type: physicochemical; settings: 12 months
[6] = Stress (influencing factor) stability test, crystal form by XRPD (Example 9); assay type: physicochemical
[7] = intermediate condition 30℃±2℃/65%±5%RH
[8] = long-term condition 25℃±2℃/60%±5%RH

With C[C@@]12CCCCC[C@@H](Cc3ccc(O)cc31)[C@@H]2NCc1ccccc1.Cl [地佐辛衍生物晶型A, 盐酸盐] the IC50 [1] was < 10 nM, the IC50 [2] was < 10 nM and the IC50 [3] was < 10 nM.
With C[C@@]12CCCCC[C@@H](Cc3ccc(O)cc31)[C@@H]2NCc1ccccc1.Cl [地佐辛衍生物晶型A] the “crystal transformation on grinding” value [4] was “未转晶”, the chemical stability [5, 7] was “很好的化学稳定性” and the crystal form stability [5, 7] was “很好的化学稳定性和晶型稳定性”. The chemical stability [5, 8] was “很好的化学稳定性”, the crystal form stability [5, 8] was “很好的化学稳定性和晶型稳定性” and the crystal form ([6]; day 0 (initial)) was “晶型A”. For the same molecule, the crystal form ([6]; high humidity, 5 days) was “晶型A”, the crystal form ([6]; high humidity, 10 days) was “晶型A” and the crystal form ([6]; high humidity, 30 days) was “晶型A”. For the same molecule, the crystal form ([6]; high temperature and high humidity, 5 days) was “晶型A”, the crystal form ([6]; high temperature and high humidity, 10 days) was “晶型A” and the crystal form ([6]; high temperature and high humidity, 30 days) was “晶型A”. The “crystal transformation (XRPD compared with initial data)” value ([6]; high temperature and high humidity, high humidity, and light (Figs. 9-17)) was “没有发生转晶现象”, the crystal form ([6]; light, 5 days) was “晶型A” and the crystal form ([6]; light, 10 days) was “晶型A”. The crystal form ([6]; light, 30 days) was “晶型A” and the “change in all quality indices” value ([6]; light, high temperature and high humidity, high humidity, packed in medicinal LDPE bag and polyester/aluminium/polyethylene composite film) was “各项指标无明显变化,均符合质量标准要求”.
